# From US11478475B2, “Inhibitor of histone deacetylase 6 in the treatment of t-cell acute lymphoblastic leukemia (T-ALL) and other neoplasia with high expression of notch-3” (ISTITUTO ONCOLOGICO VENETO IOV-IRCCS, priority 2017, dated 2022)
# Residues, ends and D or L forms follow the SMILES beside them. *: point of attachment. Cbz = O=C(OCc1ccccc1)*
# Key:
# [1] = tested on: Notch3 receptor present in the membrane; experiment: Cytofluorometric analysis of Notch3 membrane expression in T-ALL cells; type: cell-based, human
# TALL1 cells = experiment: Cytotoxicity seen as reduction of actin in Western blot; type: cell-based, human; details: 20 μM
# Notch3 receptor [2] = experiment: Western blotting of Notch3 protein in T-ALL cell lines; type: cell-based, human; details: 16 hours; for Notch3 protein levels, inhibitor added to TSA: MOLT3 and TALL1 cells, with proteasome or lysosome inhibitor
# Experimental: In particular, in FIG. 1A is shown the three cell lines of T-ALL MOLT3, Jurkat and DND41 were treated for 16 hours in vitro with TSA 500 nM.
# MOLT3 cells shown in FIG. 3A and TALL1 cells shown in FIG. 3B were treated with TSA 500 nM for 16 hours, and simultaneously in the presence or absence of a proteasome (MG132) or lysosome (chloroquine—CHL) inhibitor. […] The numbers below the bands refer to densitometric analysis.
# In FIG. 4A, T-ALL cell lines and primary cells were treated in vitro for 16 hours with the HDAC6 inhibitor Tubacin (2 μM, TUB), HDAC1 inhibitor (2 μM, HDAC1i), or HDAC8 inhibitor (2 μM, HDAC8i). […] In FIG. 4C, the three cell lines of T-ALL MOLT3, Jurkat and DND41 (left) and n=3 primary lines (right) were treated for 24 hours in vitro with the compounds previously described, and cell death was evaluated by marking with Annexin V and analysis by cytofluorometer (*P<0.05, **P<0.01, ***P<0.001, mean±SD of three independent experiments).
# (§1) In FIGS. 6A-6C, MOLT3 and TALL1 cell lines were infected with two different lentiviruses that block HDAC6 expression (shHDAC6 #1 and #2).
# (§2) In FIG. 8A, JURKAT cells were treated in vitro with rocilinostat at a concentration of 8 μM for 16 hours.
# HDAC6 = experiment: Western blotting, inhibition of the target HDAC6 in MDA-MB-468 cells; type: cell-based; details: 8 μM
# Experimental: (§3) In the assay of FIG. 11, Rocilinostat (ACY 1215) is used at a concentration of 8 μM in MDA-MB-468 cells. The expression of Notch3 and other markers was evaluated in cellular lysate by Western blotting.
# [3] = tested on: T-ALL cell lines and primary lines; experiment: Cell death by annexin V marking and cytofluorometer in T-ALL cells; type: cell-based, human; details: 24 hours
# Experimental: (§4) In FIG. 2A and the 7 primary lines shown in FIG. 2B were treated for 24 hours in vitro with TSA 500 nM. Cell death was evaluated by marking with annexin V and analysis with the cytofluorometer. Proliferation inhibition shown in FIG. 2C was assessed in the MOLT3 line by cell count (left panel) and MTS assay (right panel). In FIG. 2D, the Jurkat cells were infected with a control virus (RV-CNTR) or with an expressing Notch3 virus (RV-N3) and subsequently treated with TSA 500 nM for 24 hours. Cell death was evaluated by a luminescence assay for caspase activation (*P<0.05, **P<0.01, ***P<0.001, mean±SD of three independent experiments).
# (§5) In FIG. 4A, T-ALL cell lines and primary cells were treated in vitro for 16 hours with the HDAC6 inhibitor Tubacin (2 μM, TUB), HDAC1 inhibitor (2 μM, HDAC1i), or HDAC8 inhibitor (2 μM, HDAC8i). Treatment with Tubacin is shown in FIG. 4B, but not with the other inhibitors, is accompanied by a decrease in the target genes pTα, CR2, DTX-1. In FIG. 4C, the three cell lines of T-ALL MOLT3, Jurkat and DND41 (left) and n=3 primary lines (right) were treated for 24 hours in vitro with the compounds previously described, and cell death was evaluated by marking with Annexin V and analysis by cytofluorometer (*P<0.05, **P<0.01, ***P<0.001, mean±SD of three independent experiments).
# In FIG. 5 the T-ALL cell lines were treated in vitro for 24 hours with the HDAC6 Tubacin inhibitor (2 μM, TUB) and cell death was assessed by marking with Annexin V and analysis by cytofluorometer (*P<0.05, **P<0.01, ***P<0.001, mean±SD of three independent experiments).
# as §2
# HCC-1143 cells = experiment: Dose-response growth curve in HCC-1143 cells; type: cell-based
# Notch3 [4] = experiment: Western blotting of Notch3 in MDA-MB-468 cells; type: cell-based; details: 8 μM
# Experimental: as §3
# acetylated tubulin = experiment: Acetylated tubulin levels in HCC-1143 cells; type: cell-based; details: 8 μM, 24 hours
# Experimental: (§6) To evaluate the effects of rocilinostat on Notch3 expression in HCC-1143 cells, HCC-1143 cells were treated in vitro with rocilinostat at a concentration of 8 μM for 24 hours. […] The increase in acetylated tubulin levels confirms the activity of rocilinostat.
# [5] = tested on: acetylated tubulin (Ac. α Tub.); experiment: Western blotting of acetylated tubulin in T-ALL cell lines; type: cell-based, human; details: 16 hours
# Experimental: (§7) In particular, in FIG. 1A is shown the three cell lines of T-ALL MOLT3, Jurkat and DND41 were treated for 16 hours in vitro with TSA 500 nM. The western blotting confirms the decrease of the full length (FL) Notch3 receptor after treatment. Inhibition of HDACs is confirmed by the increase of acetylated tubulin (Ac. α Tub.). […] The treatment with TSA is accompanied by a decrease in the target genes pTα, CR2, DTX-1 in the cell lines shown in FIG. 1D and in the primary cells shown in FIG. 1E. (*P<0.05, **P<0.01, ***P<0.001, mean±SD of three independent experiments).
# as §2
# NOTCH3 FL protein = experiment: Notch3 FL protein levels in HCC-1143 cells; type: cell-based; details: 8 μM, 24 hours
# Experimental: as §6
# [6] = tested on: MDA-MB-468 breast cancer cells; experiment: Cell mortality by Annexin V/propidium iodide in MDA-MB-468 cells; type: cell-based; details: 16 μM
# Experimental: For the assay of FIG. 14, the following protocol was used:
# (§8) Day 1: coating (ligand concentration 4 ng/uL)
# (§9) Day 3 treatment with 16 μM rocilinostat
# Day 5: marking with Annexin V/propidium iodide+reading of mortality by cytofluorometer
# Notch3 [7] = experiment: Cytofluorometric evaluation of Notch3 membrane expression in HCC-1143 cells; type: cell-based
# Experimental: The following protocol was used for the graphs of FIG. 18:
# (§10) Day 1: coating of plate with Notch ligands (ligand concentration 4 ng/uL)
# (§11) Day 3 treatment with rocilinostat (16 μM) or control (DMSO)
# Day 4: marking+reading by cytofluorometer
# [8] = tested on: HCC1143 breast cancer cells; experiment: Cell mortality by Annexin V/propidium iodide in HCC-1143 cells; type: cell-based; details: 16 μM
# Experimental: For the graphs of FIG. 19, the following protocol was used:
# as §8, §9
# Day 5: marking with Annexin V/propidium iodide+reading of mortality by cytofluorometer.
# two T-ALL cell lines = experiment: Cell viability by ATPlite assay; type: cell-based, human; details: 48 hours, indicated concentrations
# Notch3 [9] = experiment: Cytofluorometric evaluation of Notch3 expression in MDA-MB-468 cells; type: cell-based
# Experimental: The graph of FIG. 12 confirms the reduction of Notch3 expression in MDA-MB-468 cell membrane after treatment with rocilinostat (8 μM) at 24 hours, in accordance with the results of the WB.
# For the assay of FIG. 13, the following protocol was used:
# as §10, §11
# Day 4: Marking+reading by cytofluorometer
# [10] = tested on: target genes pTα, CR2, DTX-1; experiment: Expression of Notch target genes in T-ALL cell lines and primary cells; type: cell-based, human
# Experimental: as §7, §5
# [11] = tested on: Notch3 and the lysosomal marker LAMP2; experiment: Immunofluorescence analysis of Notch3/LAMP2 co-localization; type: cell-based; details: after treatment with TSA, N=21 cells
# Notch3 receptor [12] = experiment: Notch3 protein levels in patient-derived primary T-ALL lines; type: cell-based, human; details: n=7 patient-derived primary lines; TSA 500 nM, 16 hours
# Experimental: Initially we treated 3 T-ALL cell lines in the laboratory with Tricostatin A (TSA), a generic commercial inhibitor that inhibits the whole class of HDACs that is commonly used in experimental practices. […] The same result was obtained by treating 7 patient-derived primary lines in vitro with TSA.
# as §7
# MOLT3 line = experiment: Proliferation by cell count and MTS assay; type: cell-based, human; details: TSA
# Experimental: as §4
# [13] = tested on: Jurkat, MOLT3 and TALL1 cells; experiment: Cell death by luminescence assay for caspase activation; type: cell-based, human; details: TSA 500 nM, 24 hours
# Experimental: as §4, §1
# [14] = MOLT3, Jurkat and DND41, TSA 500 nM
compound,measurement,setting,value
CC(C)C[C@H](NC(=O)[C@H](Cc1ccccc1)NC(=O)c1cnccn1)B(O)O [Bortezomib],Notch3 expression,"[1]; TALL1 cells, 20 μM",negative effect
same,cytotoxicity (reduction of actin in Western blot),TALL1 cells,high cytotoxicity
CC(C)C[C@@H](C=O)NC(=O)[C@H](CC(C)C)NC(=O)[C@H](CC(C)C)NC(=O)OCc1ccccc1 [MG132] (Cbz-Leu-Leu-Leu-aldehyde),"Notch3 protein levels, inhibitor added to TSA",Notch3 receptor [2]; TSA 500 nM,further lowers
"O=C(CCCCCCNC(=O)c1cnc(N(c2ccccc2)c2ccccc2)nc1)NO [rocilinostat, ricolinostat]",Notch3 membrane expression,"[1]; TALL1 cells, 8 μM, 16 hours",reduces
same,target (HDAC6) inhibition,HDAC6; 16 hours,inhibited
same,target (HDAC6) inhibition,HDAC6; 24 hours,inhibited
same,target (HDAC6) inhibition,HDAC6; 48 hours,no longer inhibited
same,apoptosis (annexin V),"[3]; JURKAT and TALL1, 8 μM",strong increase of cell death
same,growth of HCC-1143 cells (dose-response curve),HCC-1143 cells,inhibits the growth of HCC-1143 cells with dose-dependent effects
same,"Notch3 expression, Western blotting",Notch3 [4]; 16 hours,not reduced
same,"Notch3 expression, Western blotting",Notch3 [4]; 24 hours,drop in Notch3
same,acetylated tubulin levels,acetylated tubulin,increase
same,"levels of the NOTCH3 FL protein, Western blotting","Notch3 receptor [2]; JURKAT cells, 8 μM",decreases
same,acetylated tubulin levels,"[5]; JURKAT cells, 8 μM",increase
same,levels of NOTCH3 FL protein,NOTCH3 FL protein,decreases
same,cell mortality (Annexin V/propidium iodide),[6]; Day 3 to Day 5,causes the death
same,cell mortality in the presence of Notch ligands (JAG1 and DLL4),[6]; ligand 4 ng/uL,maintained or slightly increased
same,"Notch3 expression, intensity of expression (MFI)",Notch3 [7]; 16 μM,more evident
same,"Notch3 expression, percentage of positive cells (%)",Notch3 [7]; 16 μM,moderate negative effect
same,effects on Notch3 expression in the presence of Notch ligands (JAG1 and DLL4),"Notch3 [7]; 16 μM, ligand 4 ng/uL",not much influenced
same,Notch3 membrane expression,Notch3 [7]; rocilinostat alone,reduction
same,cell mortality (Annexin V/propidium iodide),[8]; Day 3 to Day 5,causes the death
same,cell mortality in the presence of Notch ligands (JAG1 and DLL4),[8]; ligand 4 ng/uL,maintained
same,cell viability (ATPlite assay),two T-ALL cell lines,marked negative effect on cell growth
same,Notch3 expression in cell membrane,"Notch3 [9]; 8 μM, 24 hours",reduction
same,"Notch3 expression, intensity of expression (MFI)",Notch3 [9]; 16 μM,marked negative effect
same,"Notch3 expression, percentage of positive cells (%)",Notch3 [9]; 16 μM,marked negative effect
same,effect on Notch3 expression in the presence of Notch ligands (JAG1 and DLL4),"Notch3 [9]; 16 μM, ligand 4 ng/uL",not substantially affected
"CCN(CC)CCCC(C)Nc1ccnc2cc(Cl)ccc12 (stereo not drawn) [Chloroquine, chloroquine]","Notch3 protein levels, inhibitor added to TSA",Notch3 receptor [2]; TSA 500 nM,decrease of Notch3 blocked
O=C(CCCCCCC(=O)Nc1ccc([C@H]2O[C@@H](CSc3nc(-c4ccccc4)c(-c4ccccc4)o3)C[C@@H](c3ccc(CO)cc3)O2)cc1)NO [Tubacin],"target genes pTα, CR2, DTX-1","[10]; T-ALL cells, 2 μM, 16 hours",decrease
same,cell death (annexin V),"[3]; MOLT3, Jurkat, DND41 and n=3 primary lines, 2 μM",effects comparable to the generic TSA inhibitor
same,"sensitivity of TALL1 cell line compared with other cell lines (cell death, Annexin V)",[3]; Tubacin 2 μM,significantly more sensitive
same,decrease in Notch3 protein levels,"Notch3 receptor [2]; T-ALL cell lines and primary cells, 2 μM",effects comparable to the generic TSA inhibitor
"CC(/C=C/C(=O)NO)=C\[C@@H](C)C(=O)c1ccc(N(C)C)cc1 [TSA, Tricostatin A]",Notch3 receptor present in the membrane,"[1]; Jurkat cells, Notch2/3 antibody, cytofluorometer, TSA",decrease
same,co-localization between Notch3 and LAMP2,[11],increase in co-localization
same,"target genes pTα, CR2, DTX-1","[10]; cell lines and primary cells, treatment with TSA",decrease
same,cell death (annexin V),"[3]; T-ALL cell lines and 7 primary lines, TSA 500 nM",induction of cell death
same,Notch3 receptor protein levels,Notch3 receptor [12],confirming the result seen in the cell lines
same,"full length (FL) Notch3 receptor, western blotting",Notch3 receptor [2]; [14],decrease
same,acetylated tubulin (Ac. α Tub.),[5]; [14],increase
same,"proliferation (cell count, MTS assay)",MOLT3 line,inhibition of proliferation
same,cell death (caspase activation) after restoring Notch3 levels (RV-N3 vs RV-CNTR),[13],die significantly less
